Assay results as given in US20220151236A1, “NOVEL OXADIAZOLE COMPOUNDS FOR CONTROLLING OR PREVENTING PHYTOPATHOGENIC FUNGI” (PI INDUSTRIES LTD., priority 2019, published 2022).

Experiments:
Alternaria solani = Alternaria solani (Early Blight of Tomato/Potato): radial mycelial growth on potato dextrose agar; format: cell-based; conditions: 168 h, potato dextrose agar, 25° C., 60% relative humidity, seven days, read-out: control (radial growth compared to the untreated check)
Experimental: Compounds were dissolved in 0.3% dimethyl sulfoxide and then added to potato dextrose agar medium just prior to dispensing it into petri dishes. 5 mL medium with the compound in the desired concentration was dispensed into 60 mm sterile petri-plates. After solidification each plate was seeded with a 5 mm size mycelial disc taken from the periphery of an actively growing virulent culture plate. Plates were incubated in growth chambers at 25° C. temperature and 60% relative humidity for seven days and then the radial growth was measured and compared to that of the untreated control. Compounds 2 85 89 92 94 108 113 114 131 138 142 143

Pyricularia Oryzae = assay: microbe, parasite or virus in culture; format: cell-based; conditions: 168 h, read-out: control (radial growth compared to the untreated check)
Botrytis cinerea = Botrytis cinerea (Gray Mold): radial mycelial growth on potato dextrose agar; format: cell-based; conditions: 300 ppm, 22° C., 90% relative humidity, seven days
Phakopsora pachyrhizi = Phakopsora pachyrhizi Test on Soybean (preventive activity, greenhouse); format: in vivo; conditions: preventive spray on young Soybean plants, inoculated one day after treatment, rated 3, 7, 10 and 15 days after application, read-out: Efficacy (% control), disease severity compared to the untreated check
Outline: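 Preventive greenhouse test: young soybean plants sprayed with compound in 2% DMSO/acetone plus emulsified water at stated rates, inoculated one day later with 2×10^5 P. pachyrhizi conidia, held at 22-24° C and 80-90% RH. Disease severity (0-100%) rated 3, 7, 10 and 15 days after application; % control relative to untreated plants.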

Colletotrichum capsici = Colletotrichum capsici (Anthracnose): radial mycelial growth on potato dextrose agar; format: cell-based; conditions: Colletotrichum truncatum, 168 h, 25° C., 60% relative humidity, seven days, read-out: control (radial growth compared to the untreated check)

| Structure (SMILES) | inhibition of growth at 300 ppm (Alternaria solani) [%] | inhibition of growth at 300 ppm (Pyricularia Oryzae) [%] | control (radial growth compared to the untreated check) (Botrytis cinerea) [%] | pest or weed control at 500 ppm (Phakopsora pachyrhizi) [%] | inhibition of growth at 300 ppm (Colletotrichum capsici) [%] |
| --- | --- | --- | --- | --- | --- |
| O=C(NCc1cn2cc(-c3noc(C(F)(F)F)n3)ccc2n1)c1cocn1 [Compound 92, N-((6-(5-(trifluoromethyl)-1,2,4-oxadiazol-3-yl)imidazo[1,2-a]pyridin-2-yl)methyl)oxazole-4-carboxamide] | ≥ 70 | ≥ 70 | – | – | – |
| CCOCc1cn2cc(-c3noc(C(F)(F)F)n3)ccc2n1 [Compound 80, 3-(2-(ethoxymethyl)imidazo[1,2-a]pyridin-6-yl)-5-(trifluoromethyl)-1,2,4-oxadiazole] | – | ≥ 70 | ≥ 70 | – | – |
| COc1cccc(SCc2cn3ccc(-c4noc(C(F)(F)F)n4)cc3n2)c1 [Compound 46, 3-(2-(((3-methoxyphenyl)thio)methyl)imidazo[1,2-a]pyridin-7-yl)-5-(trifluoromethyl)-1,2,4-oxadiazole] | – | – | – | ≥ 70 | ≥ 70 |
| COc1ccc(S(C)(=O)=NC(=O)Cc2cn3cc(-c4noc(C(F)(F)F)n4)ccc3n2)cc1 (stereo not drawn) [Compound 138, N-((4-methoxyphenyl)(methyl)(oxo)-λ^6-sulfaneylidene)-2-(6-(5-(trifluoromethyl)-1,2,4-oxadiazol-3-yl)imidazo[1,2-a]pyridin-2-yl)acetamide] | ≥ 70 | ≥ 70 | – | – | – |
| O=C(c1cn2ccc(-c3noc(C(F)(F)F)n3)cc2n1)N1CCC1 [Compound 33, azetidin-1-yl(7-(5-(trifluoromethyl)-1,2,4-oxadiazol-3-yl)imidazo[1,2-a]pyridin-2-yl)methanone] | – | ≥ 70 | – | ≥ 70 | – |
| COc1ccnc(S(C)(=O)=NC(=O)Cc2cn3cc(-c4noc(C(F)(F)F)n4)ccc3n2)c1 (stereo not drawn) [Compound 146, N-((4-methoxypyridin-2-yl)(methyl)(oxo)-λ^6-sulfaneylidene)-2-(6-(5-(trifluoromethyl)-1,2,4-oxadiazol-3-yl)imidazo[1,2-a]pyridin-2-yl)acetamide] | ≥ 70 | ≥ 70 | – | – | – |
| COCCNC(=O)c1cn2cc(-c3noc(C(F)(F)F)n3)ccc2n1 [Compound 65, N-(2-methoxyethyl)-6-(5-(trifluoromethyl)-1,2,4-oxadiazol-3-yl)imidazo[1,2-a]pyridine-2-carboxamide] | – | – | – | ≥ 70 | ≥ 70 |
| FC(F)(F)c1nc(-c2ccn3cc(CSc4ccccc4)nc3c2)no1 [Compound 50, 3-(2-((phenylthio)methyl)imidazo[1,2-a]pyridin-7-yl)-5-(trifluoromethyl)-1,2,4-oxadiazole] | – | – | – | – | ≥ 70 |
| FC(F)(F)c1nc(-c2ccc3nc(CSC4CCCC4)cn3c2)no1 [Compound 113, 3-(2-((cyclopentylthio)methyl)imidazo[1,2-a]pyridin-6-yl)-5-(trifluoromethyl)-1,2,4-oxadiazole] | ≥ 70 | ≥ 70 | – | – | – |
| CS(=O)(=NC(=O)Cc1cn2cc(-c3noc(C(F)(F)F)n3)ccc2n1)c1ccc(Br)cc1 (stereo not drawn) [Compound 142, N-((4-bromophenyl)(methyl)(oxo)-λ^6-sulfaneylidene)-2-(6-(5-(trifluoromethyl)-1,2,4-oxadiazol-3-yl)imidazo[1,2-a]pyridin-2-yl)acetamide] | ≥ 70 | ≥ 70 | – | – | – |
| FC(F)(F)c1nc(-c2ccc3nc(CSc4cccc(Cl)c4)cn3c2)no1 [Compound 103, 3-(2-(((3-chlorophenyl)thio)methyl)imidazo[1,2-a]pyridin-6-yl)-5-(trifluoromethyl)-1,2,4-oxadiazole] | – | ≥ 70 | – | ≥ 70 | – |
| O=C(c1cn2cc(-c3noc(C(F)(F)F)n3)ccc2n1)N1CCC1 [Compound 69, azetidin-1-yl(6-(5-(trifluoromethyl)-1,2,4-oxadiazol-3-yl)imidazo[1,2-a]pyridin-2-yl)methanone] | – | – | – | ≥ 70 | ≥ 70 |
| O=C(NCc1cn2cc(-c3noc(C(F)(F)F)n3)ccc2n1)c1ccccn1 [Compound 87, N-((6-(5-(trifluoromethyl)-1,2,4-oxadiazol-3-yl)imidazo[1,2-a]pyridin-2-yl)methyl)picolinamide] | – | ≥ 70 | – | ≥ 70 | – |
| O=S(=O)(Cc1cn2cc(-c3noc(C(F)(F)F)n3)ccc2n1)c1ccc(Cl)c(Cl)c1 [Compound 117, 3-(2-(((3,4-dichlorophenyl)sulfonyl)methyl)imidazo[1,2-a]pyridin-6-yl)-5-(trifluoromethyl)-1,2,4-oxadiazole] | – | – | – | – | ≥ 70 |
| FC(F)(F)c1nc(-c2ccc3nc(CSc4cc(Cl)cc(Cl)c4)cn3c2)no1 [Compound 111, 3-(2-(((3,5-dichlorophenyl)thio)methyl)imidazo[1,2-a]pyridin-6-yl)-5-(trifluoromethyl)-1,2,4-oxadiazole] | – | – | – | ≥ 70 | ≥ 70 |
| CN(C(=O)c1cn2ccc(-c3noc(C(F)(F)F)n3)cc2n1)c1ccc(Cl)cc1 [Compound 12, N-(4-chlorophenyl)-N-methyl-7-(5-(trifluoromethyl)-1,2,4-oxadiazol-3-yl)imidazo[1,2-a]pyridine-2-carboxamide] | – | ≥ 70 | – | ≥ 70 | – |
| FC(F)(F)c1nc(-c2ccc3nc(CSC4CCCCC4)cn3c2)no1 [Compound 114, 3-(2-((cyclohexylthio)methyl)imidazo[1,2-a]pyridin-6-yl)-5-(trifluoromethyl)-1,2,4-oxadiazole] | ≥ 70 | ≥ 70 | – | – | – |
| CC(C)CSCc1cn2cc(-c3noc(C(F)(F)F)n3)ccc2n1 [Compound 112, 3-(2-((isobutylthio)methyl)imidazo[1,2-a]pyridin-6-yl)-5-(trifluoromethyl)-1,2,4-oxadiazole] | – | – | – | ≥ 70 | ≥ 70 |
| O=S(=O)(Cc1cn2cc(-c3noc(C(F)(F)F)n3)ccc2n1)c1ccccc1 [Compound 116, 3-(2-((phenylsulfonyl)methyl)imidazo[1,2-a]pyridin-6-yl)-5-(trifluoromethyl)-1,2,4-oxadiazole] | – | – | – | ≥ 70 | ≥ 70 |
